# Numbered stars: 1 amine (or outer) side, 2 acyl side, 3 side chain; on linkers, the order of the positions; unused ones are H or OH. Bridge positions count the residues as written; N and C are the ends. Square brackets hold non-standard residues; d marks the D form. Peptide text beside a SMILES is read from it. I, II: the chains in the order shown. ξ: configuration not given here. hNle(7-SH) = O=C([C@H](CCCCCS[*:3])N[*:1])[*:2]; Ile(3ξ) = CCC(C)[C@H](N)C(=O)O
# Tests used:
# [1] = system: Runx2 transcriptional activity; experiment: pGL3-TβRE-luc luciferase reporter assay in 293 cells over-expressing Runx2; type: cell-based; conditions: 293 cells over-expressing Runx2 and pGL3-TβRE-luc reporter; FIG. 16
# Protocol: (§1) For luciferase assay, cells were plated on a 24-well plate one day before transfection, followed by co-transfection with luciferase reporter plasmid and numbers of Runx2 constructs. 36 hours after transfection, cells were recovered and luciferase and β-galactosidase activities were measured in cell lysate by using Luciferase Reporter Assay Kit (Promega) using luminometer according to the manufacturer's recommendations. The pCMVβ-Gal (beta-Galactosidase, Clontech Laboratory) plasmid was included as an internal control to determine the efficiency of transfection.
# To examine whether HDAC inhibitors, increasing the level of Runx2 acetylation, could promote the Runx2 transcriptional activity, 293 cells over-expressing Runx2 and pGL3-TβRE-luc reporter were treated with each HDAC inhibitor. The transcriptional activity of Runx2 was evaluated by luciferase report assay, which was performed according to the manufacturer (Promega)'s instructions. As a result, HDAC inhibitors, Tubacin, SAHA, MS-275, Trafoxin B, Oxamflatin, CHAP27, CHAP31, SCOP152, SCOP304 and SCOP402, increased transcriptional activity of Runx2 (FIG. 16). From the result, it was confirmed that HDAC inhibitors not only increase the level of Runx2 acetylation but also increase the Runx2 transcriptional activity.
# [2] = system: C2C12 pluripotent mesenchymal precursor cells; experiment: Alkaline phosphatase (ALP) activity staining, early marker of osteoblast differentiation; type: cell-based; conditions: increasing inhibitor concentration in presence of low concentration of BMP-2 (30 ng/ml), FIG. 18
# Protocol: Particularly, C2C12 pluripotent mesenchymal precursor cells were treated with each HDAC inhibitor and then fixed with 3.7% formaldehyde for 10 minutes, to which western blue substrate (Promega) was added to induce color development for 10 minutes. And alkaline phosphatase (ALP) activity, an early marker of osteoblast differentiation was measured by the active staining method (Katagiri et al., J. Cell Biol. Vol. 127, 1755-66, 1994). As a result, the treatment of HDAC inhibitors such as TSA, SAHA, MS-275, FK228, Oxamflatin, CHAP27, SCOP152, SCOP304 and SCOP402 caused increase of ALP activity (FIG. 18).
# Runx2 = Runx2 acetylation: immunoprecipitation with anti-acetyl-lysine antibody, Western blot with anti-myc antibody; type: cell-based; conditions: C2C12 cells transfected with myc-tagged Runx2, treated with HDAC inhibitor; FIG. 13
# Protocol: Following transfection, the C2C12 and 293 cells were lysed in ice-cold cell lysis buffer (25 mM HEPES (pH 7.5), 150 mM NaCl, 1% NP-40, 0.25% Na deoxycholate, 10% glycerol, 25 mM NaF, 1 mM EDTA, 1 mM Na3VO4, 250 μM phenylmethylsulfonyl fluoride, 10 μg/ml leupeptin, 10 μg/ml aprotinin) and cleared by centrifugation. The resulting supernatants were immunoprecipitated with the appropriate primary and secondary antibodies, and protein A- or protein G-Sepharose beads (Amersham) for 4 hours. All incubations were conducted at 4° C. The Sepharose beads were washed extensively and bound proteins were separated using SDS-PAGE, and then transferred to PVDF membranes. The membranes were incubated with the appropriate antibodies, washed, and then incubated with horseradish peroxidase-coupled secondary antibodies. After washing, the reactive proteins were visualized with an enhanced chemiluminescence (ECL) reagent (Amersham Biosciences).
# For HDAC inhibitor treatments, both C2C12 and 293 cells were cultured in fresh medium for 1 day following transfection, and then treated with the inhibitors (Tricostatin A (TSA), CHAP and SCOP) for 16 h, at the specified concentrations according to the methods of Komatsu et al (Cancer Res. 61:4459-4466, 2001) and Nishino et al (Nishino N. et al., Org. Lett. 5: 5079-5082, 2003).
# The level of Runx2 acetylation might be controlled by a dynamic equilibrium between acetylation and deacetylation. […] In the present invention, inhibitors of histone diacetylase (HDAC) deacetylating most proteins were treated to Runx2. Particularly, C2C12 cells, transfected with myc-tagged Runx2, were treated with HDAC inhibitors such as SCOP304, SCOP152, CHAP27, SAHA, MS-275, FK228, TrafoxinB and Oxamflatin according to the method of Komatsu et al (Cancer Res. 61:4459-4466, 2001). Immunoprecipitation was performed using anti-acetyl-lysine antibody, followed by Western blot analysis using anti-myc antibody.
# OC promoter = experiment: Osteocalcin (OC) promoter luciferase reporter assay in H1-127-21-2 cells; type: cell-based, mouse; conditions: H1-127-21-2 cells over-expressing pCS4-3Myc-Runx and pGL2-1050 OC-luc; FIG. 19
# Description: Full-length Runx2 (SEQ. ID. No 2) labeled with Myc or HA was inserted into a vector to construct CMV promoter-derived mammalian expression vectors pCS4-3Myc and pCS4-3HA (Jin et al., J Biol Chem. Vol. 279, 29409-17, 2004, Ogawa et al., Proc Natl Acad Sci USA. 1993 Vol. 90, 6859-63.). Mutations affecting the Runx2 acetylation site were introduced by PCR (Michaels A. Innis et al., PCR protocols: a guide to method and applications, Qcademic Press, Inc., 1990) and cloned into the pCS4-3Myc vector. The BMP receptor 1 (BMPR1) and HA-p300 expression vectors were obtained from M. Ewen (Dana-Farber Cancer Institute, Harvard Medical School, Boston) (Genes Dev. Vol. 8, 869-84, 1994). The expression plasmids for the myc-HDAC series were cloned into pCS4-3Myc. The luciferase reporter plasmid, pGL3-TbRE, contains two copies of TbRE (originally identified in the immunoglobulin Cα promoter) (Lee, K. S., et al., Mol. Cell. Biol. 20:8783-8792, 2000; pGL3 is product of Promega). […]
# as §1, with “The pCMVβ-Gal (beta-Galactosidase, Clontech Laboratory) plasmid was included as an internal control to determine the efficiency of transfection.” left out
# [3] = system: periosteal bone formation; experiment: Periosteal bone formation after hypodermic injection into mice calvarias, H&E histostaining; type: in vivo; conditions: 10 μl of 60 μM injected hypodermically into calvarias, two weeks, FIG. 22
# Protocol: To confirm the effect of HDAC inhibitors on bone formation, the present inventors investigated the effect of CHAP27, SCOP402 and SCOP304 on periosteal bone formation in rodent. Particularly, 10 μl of HDAC inhibitors (60 μM) were hypodermically injected into mice calvarias (Zhao et al., J. Biol. Chem., 279, 12854-12859, 2004). Two weeks later, the mice were sacrificed, followed by hematoxyline & eosine histostaining (Cell Biology. Second edition, Edited by Julio E. Celis. Published by Academic Press, 1994).
molecule,measurement,setting,value
cyclo(-L-Asu(NHOH)-D-Tyr(Me)-L-Ile-D-Pro-) [CHAP31],transcriptional activity of Runx2 (luciferase reporter),[1],increased
"Nc1ccccc1NC(=O)c1ccc(CNC(=O)OCc2cccnc2)cc1 [MS-275, carbamate, [[4-[[(2-aminophenyl)amino]carbonyl]phenyl]methyl]-, 3-pyridinemethyl ester]",ALP activity,[2],increase
same,Runx2 acetylation,Runx2,increased
same,transcriptional activity of Runx2 (luciferase reporter),[1],increased
Oxamflatin,ALP activity,[2],increase
same,Runx2 acetylation,Runx2,increased
same,transcriptional activity of Runx2 (luciferase reporter),[1],increased
cyclo(-L-Am7-D-Tyr(Me)-L-Ile-D-Pro-) [SCOP152],ALP activity,[2],increase
same,Runx2 acetylation,Runx2,increased
same,transcriptional activity of Runx2 (luciferase reporter),[1],increased
"O=C(CCCCCCC(=O)Nc1ccccc1)NO [SAHA, octanediamide, N-hydroxy-N′-phenyl-]",ALP activity,[2],increase
same,Runx2 acetylation,Runx2,increased
same,transcriptional activity of Runx2 (luciferase reporter),[1],increased
C/C=C1\NC(=O)[C@H]2CSSCC/C=C/[C@H](CC(=O)N[C@H](C(C)C)C(=O)N2)OC(=O)[C@H](C(C)C)NC1=O [FK228],ALP activity,[2],increase
same,Runx2 acetylation,Runx2,increased
"CC(/C=C/C(=O)NO)=C\[C@@H](C)C(=O)c1ccc(N(C)C)cc1 [TSA, 2,4-heptadieneamide, 7-[4-(dimethylamino)phenyl]-N-hydroxy-4,6-dimethyl-7-oxo-, (2E,4E,6R)-]",ALP activity,[2],increase
O=C(CCCCCCC(=O)Nc1ccc([C@H]2O[C@@H](CSc3nc(-c4ccccc4)c(-c4ccccc4)o3)C[C@@H](c3ccc(CO)cc3)O2)cc1)NO [Tubacin],transcriptional activity of Runx2 (luciferase reporter),[1],increased
"CCC(C)[C@@H]1NC(=O)[C@H]2CCCN2C(=O)[C@H](CCCCCSSCCCCC[C@@H]2NC(=O)[C@H]3CCCN3C(=O)[C@H](C(C)CC)NC(=O)[C@@H](Cc3ccc(OC)cc3)NC2=O)NC(=O)[C@@H](Cc2ccc(OC)cc2)NC1=O (stereo partly drawn) [SCOP304, cyclo(L-Am7 (−)-D-Tyr(Me)-L-Ile-D-Pro)dimer] (I: cyclo([Ile(3ξ)][dP][hNle(7-SH)][dY](Me)) / II: cyclo([Ile(3ξ)][dY](Me)[hNle(7-SH)][dP]); disulfide I:3-II:3)",OC promoter activation over the activation observed for Runx2 alone,OC promoter,2-4 fold
same,ALP activity,[2],increase
same,Runx2 acetylation,Runx2,increased
same,transcriptional activity of Runx2 (luciferase reporter),[1],increased
same,bone formation,[3],remarkably enhanced
